In patent US20250026752A1, “POSITIVE ALLOSTERIC MODULATORS OF THE MUSCARINIC ACETYLCHOLINE RECEPTOR M4” (Vanderbilt University, priority 2021, published 2025):
Blank lines part the entries; values can stand above or below the compound they belong to.

Target: T1, human mAChR M4 (Homo sapiens, UniProt P08173)
T1 construct: expressed in transfected cells; host or cells: CHO-K1 (ATCC), stably expressing hM4 and Gqi5
T1 sequence (P08173 1-479): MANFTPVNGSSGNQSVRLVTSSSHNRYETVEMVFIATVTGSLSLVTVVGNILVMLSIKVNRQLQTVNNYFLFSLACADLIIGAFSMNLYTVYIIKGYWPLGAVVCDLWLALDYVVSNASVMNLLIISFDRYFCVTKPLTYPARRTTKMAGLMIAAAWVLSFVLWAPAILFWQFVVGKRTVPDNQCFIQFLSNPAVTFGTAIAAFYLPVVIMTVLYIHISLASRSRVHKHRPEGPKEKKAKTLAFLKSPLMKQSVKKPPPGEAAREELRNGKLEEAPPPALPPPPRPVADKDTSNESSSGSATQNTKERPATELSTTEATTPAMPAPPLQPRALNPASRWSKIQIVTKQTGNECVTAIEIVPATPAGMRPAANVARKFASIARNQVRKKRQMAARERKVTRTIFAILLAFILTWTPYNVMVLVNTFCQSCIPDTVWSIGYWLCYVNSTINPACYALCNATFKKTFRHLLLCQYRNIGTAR
Experiment: mAChR M4 cell-based functional assay: calcium flux (Fluo-4, FDSS), positive allosteric modulator activity on the EC20 acetylcholine response, hM4-Gqi5 CHO-K1 cells
Details: for Emax at 30 µM: CHO-K1, human M4, % ACh maximum at 30 μM; for EC50: human M4, PAM activity on EC20 acetylcholine response, calcium flux, read-out: Human M4 EC50
Description: Human M4 cDNA, along with the chimeric G protein Gqi5, were transfected into Chinese hamster ovary (CHO-K1) cells purchased from the American Type Culture Collection using commercially available Lipofectamine 2000 transfection reagent (Dalby, B. et al., Methods (2004) 33(2), 95-103). hM4-Gqi5 cells were grown in Ham's F-12 medium containing 10% heat-inactivated fetal bovine serum (FBS), 20 mM […], 50 μg/mL G418 sulfate (CAS #108321-42-2), and 500 μg/mL Hygromycin B. rM4-Gqi5 cells were grown in DMEM containing 10% heat-inactivated FBS, 20 mM HEPES, 400 μg/mL G418 sulfate, and 500 μg/mL Hygromycin B.
For high throughput measurement of agonist-evoked increases in intracellular calcium, CHO-K1 cells stably expressing muscarinic receptors were plated in growth medium lacking G418 sulfate and hygromycin at 15,000 cells/20 μL/well in Greiner 384-well black-walled, tissue culture (TC)-treated, clear-bottom plates (VWR). Cells were incubated overnight at 37° C. and 5% C02. The next day, cells were washed using an ELX 405 (BioTek) with assay buffer; the final volume was then aspirated to 20 μL. Next, 20 μL of a 2.3 μM stock of Fluo-4/acetoxymethyl ester (Invitrogen, Carlsbad, CA), prepared as a 2.3 mM stock in DMSO and mixed in a 1:1 ratio with 10% (w/v) Pluronic F-127 and diluted in assay buffer, was added to the wells and the cell plates were incubated for 50 minutes at 37° C. and 5% C02. Dye was removed by washing with the ELX 405 and the final volume was aspirated to 20 μL. Compound master plates were formatted in an 11 point concentration-response curve (CRC) format (1:3 dilutions) in 100% DMSO with a starting concentration of 10 mM using a BRAVO liquid handler (Agilent). Test compound CRCs were then transferred to daughter plates (240 nL) using the Echo acoustic plate reformatter (Labcyte, Sunnyvale, CA) and then diluted into assay buffer (40 μL) to a 2× stock using a Thermo Fisher Combi (Thermo Fisher Scientific, Waltham, MA).
Calcium flux was measured using the Functional Drug Screening System (FDSS) 6000 or 7000 (Hamamatsu Corporation, Tokyo, Japan) as an increase in the fluorescent static ratio. Compounds were applied to cells (20 μL, 2×) using the automated system of the FDSS at 2-4 seconds into the protocol and the data were collected at 1 Hz. At 144 seconds, 10 μL of an EC20 concentration of the muscarinic receptor agonist acetylcholine was added (5×), followed by the addition of 12 μL of an EC80 concentration of acetylcholine at the 230 second time point (5×). Agonist activity was analyzed as a concentration-dependent increase in calcium mobilization upon compound addition. Positive allosteric modulator activity was analyzed as a concentration-dependent increase in the EC20 acetylcholine response. With the acetylcholine EC20 set as baseline, the test compound EC50 is determined as the concentration that produces an increase above baseline of 50% of the maximum increase in acetylcholine response elicted by the test compound. Antagonist activity was analyzed as a concentration-dependent decrease in the ECso acetylcholine response. Concentration-response curves were generated using a four-parameter logistical equation in XLFit curve fitting software (IDBS, Bridgewater, NJ) for Excel (Microsoft, Redmond, WA) or Prism (GraphPad Software, Inc., San Diego, CA).
Compounds were synthesized as described above. Activity (EC50 and Emax) was determined in the mAChR M4 cell-based functional assay as described above and the data are shown in Table 4. The compound numbers correspond to the compound numbers used in Examples 1-33 and Tables 1, 2, and 3.

Emax at 30 µM: 90% | EC50: 40 nM
Structure (SMILES): Cc1nc(N2CCc3ncc(-c4cnn(C)c4)cc3C2)c2cc(F)ccc2n1 [Compound 21, 6-fluoro-2-methyl-4-[3-(1-methylpyrazol-4-yl)-7,8-dihydro-5H-1,6-naphthyridin-6-yl]quinazoline]

Emax at 30 µM: 93% | EC50: 170 nM
Structure (SMILES): Cc1nc(N2CCc3ncc(-c4cnc(C)s4)cc3C2)c2cc(F)ccc2n1 [Compound 23, 5-[6-(6-fluoro-2-methyl-quinazolin-4-yl)-7,8-dihydro-5H-1,6-naphthyridin-3-yl]-2-methyl-thiazole]

Emax at 30 µM: 103% | EC50: 570 nM
Structure (SMILES): Cc1nn(C)cc1-c1cnc2c(c1)CN(c1nc(Cl)nc3ccc(Cl)cc13)CC2 [Compound 28, 2,6-dichloro-4-[3-(1,3-dimethylpyrazol-4-yl)-7,8-dihydro-5H-1,6-naphthyridin-6-yl]quinazoline]

Emax at 30 µM: 97% | EC50: 260 nM
Structure (SMILES): Cc1noc(C)c1-c1cnc2c(c1)CN(c1nc(Cl)nc3ccc(F)cc13)CC2 [Compound 29, 4-[6-(2-chloro-6-fluoro-quinazolin-4-yl)-7,8-dihydro-5H-1,6-naphthyridin-3-yl]-3,5-dimethyl-isoxazole]

Emax at 30 µM: 113% | EC50: 510 nM
Structure (SMILES): Cc1ccc2nc(Cl)nc(N3CCc4ncc(-c5cnn(C6CC6)c5)cc4C3)c2c1 [Compound 30, 2-chloro-4-[3-(1-cyclopropylpyrazol-4-yl)-7,8-dihydro-5H-1,6-naphthyridin-6-yl]-6-methyl-quinazoline]

Emax at 30 µM: 95% | EC50: 230 nM
Structure (SMILES): Cc1nn(C)cc1-c1cnc2c(c1)CN(c1nc(Cl)nc3ccc(F)cc13)CC2 [Compound 31, 2-chloro-4-[3-(1,3-dimethylpyrazol-4-yl)-7,8-dihydro-5H-1,6-naphthyridin-6-yl]-6-fluoro-quinazoline]

Emax at 30 µM: 84% | EC50: 780 nM
Structure (SMILES): Cc1ccc2nc(C)nc(N3CCc4ncc(-c5cn(C)nc5C)cc4C3)c2c1 [Compound 32, 4-[3-(1,3-dimethylpyrazol-4-yl)-7,8-dihydro-5H-1,6-naphthyridin-6-yl]-2,6-dimethyl-quinazoline]

Emax at 30 µM: 84% | EC50: 60 nM
Structure (SMILES): Cn1nccc1-c1cnc2c(c1)CN(c1ncnc3ccc(Cl)cc13)CC2 [Compound 39, 6-chloro-4-[3-(2-methylpyrazol-3-yl)-7,8-dihydro-5H-1,6-naphthyridin-6-yl]quinazoline]

Emax at 30 µM: 79% | EC50: 110 nM
Structure (SMILES): Cc1ncc(-c2cnc3c(c2)CN(c2ncnc4ccc(Cl)cc24)CC3)s1 [Compound 40, 5-[6-(6-chloroquinazolin-4-yl)-7,8-dihydro-5H-1,6-naphthyridin-3-yl]-2-methyl-thiazole]

The remaining lines, values behind:

Structure (SMILES): Cc1nc(N2CCc3ncc(-c4c(C)noc4C)cc3C2)c2cc(F)ccc2n1 [Compound 22, 4-[6-(6-fluoro-2-methyl-quinazolin-4-yl)-7,8-dihydro-5H-1,6-naphthyridin-3-yl]-3,5-dimethyl-isoxazole]
Emax at 30 µM: 90% | EC50: 120 nM

Structure (SMILES): Cc1nc(N2CCc3ncc(-c4ccc(N(C)C)nc4)cc3C2)c2cc(F)ccc2n1 [Compound 24, 5-[6-(6-fluoro-2-methyl-quinazolin-4-yl)-7,8-dihydro-5H-1,6-naphthyridin-3-yl]-N,N-dimethyl-pyridin-2-amine]
Emax at 30 µM: 92% | EC50: 590 nM

Structure (SMILES): Cc1nc(N2CCc3ncc(-c4ccc(C5CC5)nc4)cc3C2)c2cc(F)ccc2n1 [Compound 25, 4-[3-(6-cyclopropyl-3-pyridyl)-7,8-dihydro-5H-1,6-naphthyridin-6-yl]-6-fluoro-2-methyl-quinazoline]
Emax at 30 µM: 96% | EC50: 310 nM

Structure (SMILES): Cc1ccc(-c2cnc3c(c2)CN(c2nc(C)nc4ccc(F)cc24)CC3)cn1 [Compound 26, 6-fluoro-2-methyl-4-[3-(6-methyl-3-pyridyl)-7,8-dihydro-5H-1,6-naphthyridin-6-yl]quinazoline]
Emax at 30 µM: 102% | EC50: 130 nM

Structure (SMILES): Cc1ncc(-c2cnc3c(c2)CN(c2ncnc4ccc(F)cc24)CC3)s1 [Compound 27, 5-[6-(6-fluoroquinazolin-4-yl)-7,8-dihydro-5H-1,6-naphthyridin-3-yl]-2-methyl-thiazole]
Emax at 30 µM: 110% | EC50: 170 nM

Structure (SMILES): Cc1ccc2nc(C)nc(N3CCc4ncc(-c5cnn(C6CC6)c5)cc4C3)c2c1 [Compound 33, 4-[3-(1-cyclopropylpyrazol-4-yl)-7,8-dihydro-5H-1,6-naphthyridin-6-yl]-2,6-dimethyl-quinazoline]
Emax at 30 µM: 92% | EC50: 380 nM

Structure (SMILES): Clc1nc(N2CCc3ncc(-c4cnn(C5CC5)c4)cc3C2)c2cccnc2n1 [Compound 34, 2-chloro-4-[3-(1-cyclopropylpyrazol-4-yl)-7,8-dihydro-5H-1,6-naphthyridin-6-yl]pyrido[2,3-d]pyrimidine]
Emax at 30 µM: 53% | EC50: 600 nM

Structure (SMILES): Cc1ncc(-c2cnc3c(c2)CN(c2nc(Cl)nc4ncccc24)CC3)s1 [Compound 35, 5-[6-(2-chloropyrido[2,3-d]pyrimidin-4-yl)-7,8-dihydro-5H-1,6-naphthyridin-3-yl]-2-methyl-thiazole]
Emax at 30 µM: 57% | EC50: 610 nM

Structure (SMILES): Cc1ccc(-c2cnc3c(c2)CN(c2nc(Cl)nc4ncccc24)CC3)cn1 [Compound 36, 2-chloro-4-[3-(6-methyl-3-pyridyl)-7,8-dihydro-5H-1,6-naphthyridin-6-yl]pyrido[2,3-d]pyrimidine]
Emax at 30 µM: 69% | EC50: 650 nM

Structure (SMILES): Fc1ccc2ncnc(N3CCc4ncc(-c5ccc(C6CC6)nc5)cc4C3)c2c1 [Compound 37, 4-[3-(6-cyclopropyl-3-pyridyl)-7,8-dihydro-5H-1,6-naphthyridin-6-yl]-6-fluoro-quinazoline]
Emax at 30 µM: 88% | EC50: 260 nM

Structure (SMILES): Cc1ccc(-c2cnc3c(c2)CN(c2ncnc4ccc(F)cc24)CC3)cn1 [Compound 38, 6-fluoro-4-[3-(6-methyl-3-pyridyl)-7,8-dihydro-5H-1,6-naphthyridin-6-yl]quinazoline]
Emax at 30 µM: 93% | EC50: 170 nM

Structure (SMILES): CN(C)c1ccc(-c2cnc3c(c2)CN(c2ncnc4ccc(Cl)cc24)CC3)cn1 [Compound 41, 5-[6-(6-chloroquinazolin-4-yl)-7,8-dihydro-5H-1,6-naphthyridin-3-yl]-N,N-dimethyl-pyridin-2-amine]
Emax at 30 µM: 74% | EC50: 430 nM

Structure (SMILES): Clc1ccc2ncnc(N3CCc4ncc(-c5ccc(C6CC6)nc5)cc4C3)c2c1 [Compound 42, 6-chloro-4-[3-(6-cyclopropyl-3-pyridyl)-7,8-dihydro-5H-1,6-naphthyridin-6-yl]quinazoline]
Emax at 30 µM: 72% | EC50: 380 nM

Structure (SMILES): Cc1ccc(-c2cnc3c(c2)CN(c2ncnc4ccc(Cl)cc24)CC3)cn1 [Compound 43, 6-chloro-4-[3-(6-methyl-3-pyridyl)-7,8-dihydro-5H-1,6-naphthyridin-6-yl]quinazoline]
Emax at 30 µM: 79% | EC50: 70 nM
